Source: patent US20080207864A1, “Organosilanes, Process For Production of the Same, and Use Thereof” (priority 2004, published 2008)

Experiment: Solubility in an organic solvent
Type: physicochemical
Details: 1 μml of compound added to 1 ml solvent, mixed 15 minutes; chloroform for Examples 7 to 8, toluene for Examples 9 to 10 and Comparative Example 1
Experimental: Solubility of organic silane compounds synthesized in Examples 7 to 10, and 6,8,11,13-tetra(N,N-diphenylamino)pentacene of Comparative Example 1 in an organic solvent was assessed. More particularly, 1 μml of each compound was added to 1 ml of the following organic solvent, and this was mixed for 15 minutes.
Examples 9 to 10 and Comparative Example 1
Each of organic silane compounds of Examples 7 to 10 was dissolved in an organic solvent to obtain a transparent solution.

## c1ccc(N(c2ccccc2)c2ccc(N(c3ccccc3)c3ccccc3)c3cc4c(N(c5ccccc5)c5ccccc5)c5cc6ccccc6cc5c(N(c5ccccc5)c5ccccc5)c4cc23)cc1 [Comparative Example 1, 6,8,11,13-tetra(N,N-diphenylamino)pentacene]
  Solubility in an organic solvent: only dispersed and not dissolved in an organic solvent
